Measured values taken from patent US11046701B2, “Salt of cetagliptin, preparation method thereof, pharmaceutical composition, and use thereof” (CGENETECH (SUZHOU, CHINA) CO., LTD., priority 2018, dated 2021).
≈ marks a conversion by molar mass, not a printed value. Where “and” joins values, the source holds several entries; their conditions need not be identical. Equal entries are not always repeated.

Key:
[1] = XRPD of phosphate crystal form A after heating; format: physicochemical; settings: heated for 48 h at 50° C.
From the text: After detection, the obtained solid was the crystal form A of phosphate, its XRPD data was shown in Table 9 below, its XRPD pattern was shown in FIG. 4, and its TGA chart and DSC chart were shown in FIG. 5. […] (peak temperatures) before decomposition.

[2] = Rough solubility of the amorphous phosphate in solvents; format: physicochemical; settings: thermodynamic from solid
Description: The rough solubility of the amorphous phosphate prepared in Example 1 was measured. During the test, about 2 mg of the amorphous phosphate prepared in Example 1 was weighed and put into a 3 mL glass bottle, the solvents listed in the following Table 8 were added separately at an amount of 20 microliters/each time, and it was observed whether the sample was completely dissolved. If the sample was still not dissolved completely after 2.0 mL of the solvents was added, the test ended.

[3] = PK/PD experiment of ICR mice: plasma concentration; format: in vivo, CD-1 (ICR) mice; settings: CD-1 (ICR), mouse, oral dose 3 mg/kg
Description: (§1) Experimental animals: CD-1 (ICR) mice aged for 4 weeks and weighed for about 18-22 g.
(§2) Grouping and administration scheme: the mice were fed adaptively, randomly grouped according to the weight on the day before experiment, and fasted overnight. […] After the experimental grouping, the group provided separately for detecting the initial basic value of DPPIV was carried out blood sampling, and other animals were intragastrically administrated with the drug at an administration volume of 10 mL/kg, the blood was sampled after the administration, and all other animals were stimulated with glucose administration; the blood was sampled at 20 min, 40 min, 60 min and 120 min after the glucose administration, respectively, and the plasma concentration and the DPPIV activity were detected by using plasma.
Research on pharmacodynamics-plasma concentration correlation: blood samples were collected at time points of 1 h, 1.33 h, 1.67 h, 2 h and 3 h after administration, and the plasma concentration was measured. The drug exposure value (AUCeff0-3h) of the DPPIV-P1 increased with the increase of dose, which was 16.09 ng·h/mL, 52.65 ng·h/mL, 162.3 ng·h/mL and 542.28 ng·h/mL, respectively.

[4] = Weight of ICR mice of each group; format: in vivo, CD-1 (ICR) mice; settings: individual animals, 3 mg/kg group, 3 mg/kg
Description: as §1, §2

DIO mice [5] = test: Long-term administration on DIO mice: fasting blood glucose; format: in vivo; settings: for Fasting blood glucose: 30 mg/kg daily intragastric
Description: (§3) A solution with a certain concentration was prepared from the crystal form B of the phosphate, and the administration volume was 10 mL/kg.
(§4) Experimental animals: C57BL16 mice aged for 5 weeks and weighed for about 13-16 g.
(§5) Grouping and administration scheme: the mice were fed adaptively and divided into a normal control group and a model group which were fed with high-fat feed (Research diets, D 12492). When the fasting blood glucose of the mice was greater than or equal to 7 mM, it was considered that the mice had become DIO mice. The DIO mice could be selected for the hypoglycemic effect test. The DIO mice were stratified and randomly grouped according to the blood glucose and the weight. […] The weight and the fasting blood glucose were measured weekly; the food amount, the remaining food amount and the food intake were recorded; the mice were fasted overnight at the end of administration, the blood was sampled, and the free fatty acid (NEFA), total cholesterol (TCHO), triglyceride (TG), insulin and DPPIV activity were measured by using serum.

DIO mice [6] = test: Long-term administration on DIO mice: serum metabolic parameters (NEFA, TCHO, TG, insulin); format: in vivo, C57BL16 mice; settings: 30 mg/kg, end of long-term administration
From the text: Experimental animals: […] Table 18 was a total data table of the metabolic parameters.

[7] = Long-term administration on DIO mice: weight, food intake, tolerance
Description: as §3, §4, §5

C[C@@H]1c2cnc(C(F)(F)F)n2CCN1C(=O)C[C@H](N)Cc1cc(F)c(F)cc1F [phosphate crystal form A, (8R)-7-[(3R)-3-amino-1-oxo-4-(2,4,5-trifluorophenyl)butyl]-5,6,7,8-tetrahydro-8-methyl-3-(trifluoromethyl)imidazo[1,5-a]pyrazine]
crystal form after heating (XRPD) [1]: transformed into a phosphate crystal form B

C[C@@H]1c2cnc(C(F)(F)F)n2CCN1C(=O)C[C@H](N)Cc1cc(F)c(F)cc1F [Example 1, (8R)-7-[(3R)-3-amino-1-oxo-4-(2,4,5-trifluorophenyl)butyl]-5,6,7,8-tetrahydro-8-methyl-3-(trifluoromethyl)imidazo[1,5-a]pyrazine]
solubility ([2]; 1,4-Dioxane, organic solvent or mixture): 2.7 to 2.9 mg/mL (≈ 6.42 to 6.9 mM) | solubility ([2]; 2-MeTHF, organic solvent or mixture): 38.3 to 57.5 mg/mL (≈ 91.1 to 137 mM) | solubility ([2]; ACN, organic solvent or mixture): 57.5 to 115 mg/mL (≈ 137 to 274 mM) | solubility ([2]; Acetic acid, organic solvent or mixture): < 54 mg/mL | solubility ([2]; Acetone, organic solvent or mixture): 47.5 to 95 mg/mL (≈ 113 to 226 mM) | solubility ([2]; CHCl3, organic solvent or mixture): < 1.3 mg/mL | solubility ([2]; DCM, organic solvent or mixture): < 1.1 mg/mL | solubility ([2]; DMF, organic solvent or mixture): < 42 mg/mL | solubility ([2]; DMSO, organic solvent or mixture): 46 to 115 mg/mL (≈ 109 to 274 mM) | solubility ([2]; EtOAc, organic solvent or mixture): < 1.1 mg/mL | solubility ([2]; EtOH, organic solvent or mixture): 57.5 to 115 mg/mL (≈ 137 to 274 mM) | solubility ([2]; Heptane, organic solvent or mixture): < 1.3 mg/mL | solubility ([2]; Hexane, organic solvent or mixture): < 1.2 mg/mL | solubility ([2]; IPA, organic solvent or mixture): 38.3 to 57.5 mg/mL (≈ 91.1 to 137 mM) | solubility ([2]; IPAc, organic solvent or mixture): < 1.1 mg/mL | solubility ([2]; MEK, organic solvent or mixture): 72.5 to 145 mg/mL (≈ 172 to 345 mM) | solubility ([2]; MIBK, organic solvent or mixture): < 1 mg/mL | solubility ([2]; MTBE, organic solvent or mixture): < 0.9 mg/mL | solubility ([2]; MeOH, organic solvent or mixture): 67.5 to 135 mg/mL (≈ 161 to 321 mM) | solubility ([2]; NMP, organic solvent or mixture): 20 to 40 mg/mL (≈ 47.6 to 95.2 mM) | solubility ([2]; THF, organic solvent or mixture): 46 to 115 mg/mL (≈ 109 to 274 mM) | solubility ([2]; Toluene, organic solvent or mixture): < 1 mg/mL | solubility ([2]; cyclohexanol, organic solvent or mixture): < 1 mg/mL | solubility ([2]; isoamyl alcohol, organic solvent or mixture): 10 to 13.3 mg/mL (≈ 23.8 to 31.6 mM) | solubility ([2]; isobutyl alcohol, organic solvent or mixture): 3.8 to 4.7 mg/mL (≈ 9.04 to 11.2 mM) | solubility ([2]; n-amyl alcohol, organic solvent or mixture): 6.8 to 8.5 mg/mL (≈ 16.2 to 20.2 mM) | solubility ([2]; n-butyl alcohol, organic solvent or mixture): 60 to 120 mg/mL (≈ 143 to 285 mM) | solubility ([2]; organic solvent or mixture, 1- Octanol): < 0.9 mg/mL | solubility ([2]; sec-butyl alcohol, organic solvent or mixture): < 1 mg/mL | solubility ([2]; water, H2O): 21 to 42 mg/mL (≈ 50 to 99.9 mM)

N[C@@H](CC(=O)N1CCn2c(nnc2C(F)(F)F)C1)Cc1cc(F)c(F)cc1F [Sitagliptin phosphate, reference compound]
concentration at 1 h ([3]; 1 hour): 184 ± 10.2 ng/mL | concentration at 1.33 h ([3]; 1.33 hours): 159 ± 46.6 ng/mL | concentration at 1.67 h ([3]; 1.67 hours): 152 ± 15.1 ng/mL | concentration at 2 h ([3]; 2 hours): 142 ± 19.6 ng/mL | concentration at 3 h ([3]; 3 hours): 97.9 ± 35.5 ng/mL | AUC ([3]; read-out: Drug exposure (AUCeff0-3 h)): 370 ng·h/mL | weight [4]: 24.0 (3×) and 26.0 (2×) and 25.1 (2×) and 25.0 and 24.6 (2×) and 24.4 and 24.3 and 22.9 and 22.2 and 26.5 | Fasting blood glucose (DIO mice [5]; D 1): 8.3 ± 1.1 mmol/L | Fasting blood glucose (DIO mice [5]; D 3): 6.8 ± 1.1 mmol/L | Fasting blood glucose (DIO mice [5]; D 7): 8.0 ± 1.2 mmol/L | Fasting blood glucose (DIO mice [5]; D 14): 8.5 ± 1.3 mmol/L | Fasting blood glucose (DIO mice [5]; D 21): 8.9 ± 0.9 mmol/L | Fasting blood glucose (DIO mice [5]; D 28): 8.6 ± 0.9 mmol/L | fasting blood glucose data after the drug was administrated for 28 days (DIO mice [5]; individual animals, 30 mg/kg): 8.9 and 8.3 and 8.4 and 7.8 and 9.1 and 8.2 and 9.8 and 7.9 (2×) and 8 and 10.8 | decrease of insulin compared with the model control group (DIO mice [6]): 58.3% | decrease of total cholesterol (TCHO) compared with the model control group (DIO mice [6]): 25.4% | Serum NEFA (DIO mice [6]; fasted overnight): 1.11 ± 0.13 mmol/L | Serum TCHO (DIO mice [6]; fasted overnight): 3.99 ± 0.798 mmol/L | Serum TG (DIO mice [6]; fasted overnight): 0.94 ± 0.15 mmol/L | Serum insulin (DIO mice [6]; fasted overnight): 2.2 ± 1.38 ng/mL | Food intake ([7]; 30 mg/kg): 2.2 ± 5.0 g/day | weight ([7]; 30 mg/kg daily, D1): 37.2 ± 4.4 g | weight ([7]; 30 mg/kg daily, D7): 35.3 ± 3.7 g | weight ([7]; 30 mg/kg daily, D14): 34.4 ± 4.9 g | weight ([7]; 30 mg/kg daily, D21): 37.2 ± 5.3 g | weight ([7]; 30 mg/kg daily, D28): 39.5 ± 5.0 g | weight ([7]; 30 mg/kg, total data table of metabolic parameters (end of experiment)): 39.5 ± 5.0 g | weight after the drug was administrated for 28 days ([7]; individual animals, 30 mg/kg): 39.9 (2×) and 31.0 and 34.8 and 41.6 and 32.2 and 40.5 and 40.8 and 45.6 and 47.1 and 41.0
